Data as given in paper PMC11358092, “Caspofungin enhances the potency of rifampin against Gram-negative bacteria” (Frontiers in Microbiology, 2024).
Structures can show the parent of a compound that is named as a salt.

The molecules below were run on E. coli MG1655 (assay: High-throughput screening of FDA-approved drug library for antibiotic adjuvants (growth inhibition, OD600)). Settings: library drug alone, LB medium, 96-well, 8 h static culture at 37°C, relative to PMBN (positive) and DMSO (negative) controls, %, table head prints no unit.
Assay type: cell-based, Escherichia coli
Method: To screen for antibiotic adjuvants against GNB, […] library drugs or polymyxin B nonapeptide (PMBN, positive control) or dimethyl sulfoxide (DMSO, negative control). After 8 h of static culture at 37°C, the optical density at 600 nm (OD600) was measured using a microplate reader. Percentage inhibition was calculated as (ODN – ODX)/(ODN – ODP) × 100%, where ODX is the OD600 value for a test treated with drug X, and ODP and ODN are the OD600 values for the positive and negative control, respectively.
In the case of `CO/N=C(\C(=O)N[C@@H]1C(=O)N2C(C(=O)O)=C(C[N+]3(C)CCCC3)CS[C@H]12)c1csc(N)n1` [Cefepime Dihydrochloride Monohydrate], the “Growth inhibition, Compound” value was 83%. `C[C@@H]1CN(c2c(F)c(N)c3c(=O)c(C(=O)O)cn(C4CC4)c3c2F)C[C@H](C)N1` [Sparfloxacin] was tested, and the “Growth inhibition, Compound” value was 96%. In the case of `COc1c(N2C[C@@H]3CCCN[C@@H]3C2)c(F)cc2c(=O)c(C(=O)O)cn(C3CC3)c12` [Moxifloxacin hydrochloride], the “Growth inhibition, Compound” value was 111%. With `Cc1nnc(SCC2=C(C(=O)O)N3C(=O)[C@@H](NC(=O)Cn4cc(Cl)c(=O)c(Cl)c4)[C@H]3SC2)s1` [Cefazedone] the “Growth inhibition, Compound” value was 111%. With `CC1(C)S[C@@H]2[C@H](NC(=O)C(C(=O)O)c3ccccc3)C(=O)N2[C@H]1C(=O)O` (some centres unmarked) [Carbenicillin disodium] the “Growth inhibition, Compound” value was 89%. In the case of `O=[N+]([O-])C(Br)(CO)CO` [Bronopol], the “Growth inhibition, Compound” value was 100%. `CO/N=C(\C(=O)N[C@@H]1C(=O)N2C(C(=O)O)=C(COC(N)=O)CS[C@H]12)c1ccco1` [Cefuroxime sodium] was tested, and the “Growth inhibition, Compound” value was 95%. In the case of `Nc1nc(-n2cc(C(=O)O)c(=O)c3cc(F)c(N4CC(O)C4)c(Cl)c32)c(F)cc1F` [Delafloxacin], the “Growth inhibition, Compound” value was 105%. `COC(=O)N/N=C/c1c[n+]([O-])c2ccccc2[n+]1[O-]` [Carbadox] was tested, and the “Growth inhibition, Compound” value was 110%. In the case of `NC[C@H]1O[C@H](O[C@H]2[C@H](O)[C@@H](O[C@H]3O[C@H](CO)[C@@H](O)[C@H](N)[C@H]3O)[C@H](N)C[C@@H]2N)[C@H](O)[C@@H](O)[C@@H]1O` [Kanamycin sulfate], the “Growth inhibition, Compound” value was 109%. With `CS(=O)(=O)c1ccc([C@@H](O)[C@@H](CO)NC(=O)C(Cl)Cl)cc1` [Thiamphenicol] the “Growth inhibition, Compound” value was 66%. In the case of `CC1(C)S[C@@H]2[C@H](NC(=O)[C@H](N)c3ccccc3)C(=O)N2[C@H]1C(=O)OCOC(=O)[C@@H]1N2C(=O)C[C@H]2S(=O)(=O)C1(C)C` [Sultamicillin], the “Growth inhibition, Compound” value was 106%. For `OB1OCc2cc(F)ccc21` [Tavaborole], the “Growth inhibition, Compound” value was 91%. For `Cl.N[C@@H]1CCCCN(c2c(F)cc3c(=O)c(C(=O)O)cn(C4CC4)c3c2Cl)C1` [Besifloxacin HCl], the “Growth inhibition, Compound” value was 107%. `CCn1cc(C(=O)O)c(=O)c2ccc(C)nc21` [Nalidixic acid] was tested, and the “Growth inhibition, Compound” value was 74%. `CN[C@@H]1[C@@H](O)[C@@H](O[C@@H]2[C@@H](O)[C@H](O[C@H]3O[C@H](CN)[C@@H](O)[C@H](O)[C@H]3O)[C@@H](N)C[C@H]2NC(=O)[C@@H](O)CN)OC[C@]1(C)O` [Isepamicin sulfate] was tested, and the “Growth inhibition, Compound” value was 108%. For `COc1ccc(Cc2cnc(N)nc2N)cc1OC` [Diaveridine], the “Growth inhibition, Compound” value was 107%. `Cn1nnnc1SCC1=C(C(=O)O)N2C(=O)[C@@H](NC(=O)[C@H](OC=O)c3ccccc3)[C@H]2SC1` [Cefamandole nafate] was tested, and the “Growth inhibition, Compound” value was 88%. For `Oc1c(Br)cc(Br)c2cccnc12` [Broxyquinoline], the “Growth inhibition, Compound” value was 103%. `CO/N=C1\C[C@]2(C[C@@H]3C[C@@H](C/C=C(\C)C[C@@H](C)/C=C/C=C4\CO[C@@H]5[C@H](O)C(C)=C[C@@H](C(=O)O3)[C@]45O)O2)O[C@H](/C(C)=C/C(C)C)[C@H]1C` [Moxidectin] was tested, and the “Growth inhibition, Compound” value was 32%. In the case of `CC[C@H]1OC(=O)[C@H](C)[C@@H](O[C@H]2C[C@@](C)(OC)[C@@H](O)[C@H](C)O2)[C@H](C)[C@@H](O[C@@H]2O[C@H](C)C[C@H](N(C)C)[C@H]2O)[C@](C)(O)C[C@@H](C)C(=O)[C@H](C)[C@H]2OC(=O)O[C@@]21C` [Davercin], the “Growth inhibition, Compound” value was 114%. `CC(=O)Oc1ccccc1C(=O)Nc1ncc([N+](=O)[O-])s1` [Nitazoxanide] was tested, and the “Growth inhibition, Compound” value was 36%. For `CCn1cc(C(=O)O)c(=O)c2cc(F)c(N3CCNC(C)C3)c(F)c21` (centres unmarked) [Lomefloxacin hydrochloride], the “Growth inhibition, Compound” value was 107%. With `[H]/N=C(/N)N[C@H]1[C@H](O)[C@@H](O)[C@H](O[C@@H]2O[C@@H](C)[C@](O)(C=O)[C@H]2O[C@@H]2O[C@@H](CO)[C@H](O)[C@@H](O)[C@@H]2NC)[C@@H](N/C(N)=N\[H])[C@@H]1O` [Streptomycin sulfate] the “Growth inhibition, Compound” value was 109%. `C[C@H]1COc2c(N3CCN(C)CC3)c(F)cc3c(=O)c(C(=O)O)cn1c23` [Levofloxacin hydrochloride] was tested, and the “Growth inhibition, Compound” value was 110%. With `CC[C@H]1OC(=O)[C@H](C)[C@@H](O[C@H]2C[C@@](C)(OC)[C@@H](O)[C@H](C)O2)[C@H](C)[C@@H](O[C@@H]2O[C@H](C)C[C@H](N(C)C)[C@H]2O)[C@](C)(O)C[C@@H](C)CN(C)[C@H](C)[C@@H](O)[C@]1(C)O` [Azithromycin dihydrate] the “Growth inhibition, Compound” value was 111%. For `Nc1ncn([C@@H]2O[C@H](CO)[C@@H](O)[C@H]2O)c(=O)n1` [5-Azacytidine], the “Growth inhibition, Compound” value was 43%. With `Oc1c(I)cc(I)c2cccnc12` [Iodoquinol] the “Growth inhibition, Compound” value was 70%. `C[C@@H](O)[C@H]1C(=O)N2C(C(=O)O)=C(S[C@@H]3CN[C@H](C(=O)N(C)C)C3)[C@H](C)[C@H]12` [Meropenem] was tested, and the “Growth inhibition, Compound” value was 90%. For `CCn1cc(C(=O)O)c(=O)c2cc(F)c(N3CCNCC3)nc21` [Enoxacin], the “Growth inhibition, Compound” value was 109%. In the case of `Cc1cc(C2CCCCC2)n(O)c(=O)c1.NCCO` [Ciclopirox ethanolamine], the “Growth inhibition, Compound” value was 114%. `c1cnc2c(c1)ccc1cccnc12` [o-Phenanthroline] was tested, and the “Growth inhibition, Compound” value was 79%. In the case of `C[C@@H]1O[C@@H]1P(=O)(O)O` [Fosfomycin Disodium], the “Growth inhibition, Compound” value was 102%. For `NCC[C@H](O)C(=O)N[C@@H]1C[C@H](N)[C@@H](O[C@H]2O[C@H](CN)[C@@H](O)[C@H](O)[C@H]2O)[C@H](O)[C@H]1O[C@H]1O[C@H](CO)[C@@H](O)[C@H](N)[C@H]1O.O=S(=O)(O)O.O=S(=O)(O)O` [Amikacin Sulfate Salt], the “Growth inhibition, Compound” value was 107%. `C[C@H]1c2cccc(O)c2C(=O)C2=C(O)[C@]3(O)C(=O)C(C(N)=O)=C(O)[C@@H](N(C)C)[C@@H]3[C@@H](O)[C@@H]21` [Doxycycline hydrochloride] was tested, and the “Growth inhibition, Compound” value was 114%. With `C[C@@H]1CN(c2c(F)c(F)c3c(=O)c(C(=O)O)cn(C4CC4)c3c2F)C[C@H](C)N1` [Orbifloxacin] the “Growth inhibition, Compound” value was 113%. `CCN[C@@H]1C[C@H](N)[C@@H](O[C@H]2OC(CN)=CC[C@H]2N)[C@H](O)[C@H]1O[C@H]1OC[C@](C)(O)[C@H](NC)[C@H]1O.CCN[C@@H]1C[C@H](N)[C@@H](O[C@H]2OC(CN)=CC[C@H]2N)[C@H](O)[C@H]1O[C@H]1OC[C@](C)(O)[C@H](NC)[C@H]1O.O=S(=O)(O)O.O=S(=O)(O)O.O=S(=O)(O)O.O=S(=O)(O)O.O=S(=O)(O)O` [Netilmicin sulfate] was tested, and the “Growth inhibition, Compound” value was 109%. For `CCCCCCCCN=c1ccn(CCCCCCCCCCn2ccc(=NCCCCCCCC)cc2)cc1` [Octenidine Dihydrochloride], the “Growth inhibition, Compound” value was 91%. With `[H]/N=C(/NCCCCC)N/N=C/c1c[nH]c2ccc(OC)cc12` [Tegaserod maleate] the “Growth inhibition, Compound” value was 85%. `C[C@@H](O)[C@H]1C(=O)N2C(C(=O)O)=C(S[C@@H]3CN[C@H](C(=O)N(C)C)C3)[C@H](C)[C@H]12` [Meropenem trihydrate] was tested, and the “Growth inhibition, Compound” value was 86%. For `C[C@@H](O)[C@H]1C(=O)N2C(C(=O)O)=C(S[C@@H]3CN[C@H](CNS(N)(=O)=O)C3)[C@H](C)[C@H]12` [Doripenem], the “Growth inhibition, Compound” value was 95%. With `C=C1c2cccc(O)c2C(=O)C2=C(O)[C@]3(O)C(=O)C(C(N)=O)=C(O)[C@@H](N(C)C)[C@@H]3[C@@H](O)[C@H]12` [Methacycline hydrochloride] the “Growth inhibition, Compound” value was 112%. For `CC1CCc2c(N3CCC(O)CC3)c(F)cc3c(=O)c(C(=O)O)cn1c23` (centres unmarked) [Nadifloxacin], the “Growth inhibition, Compound” value was 110%. With `CO/N=C(\C(=O)N[C@@H]1C(=O)N2C(C(=O)O)=CCS[C@H]12)c1csc(N)n1` [Ceftizoxime] the “Growth inhibition, Compound” value was 101%. For `CCN1CCN(C(=O)N[C@@H](C(=O)N[C@@H]2C(=O)N3C(C(=O)O)=C(CSc4nnnn4C)CS[C@H]23)c2ccc(O)cc2)C(=O)C1=O` [Cefoperazone], the “Growth inhibition, Compound” value was 100%. For `NC(=O)[C@@H]1CC[C@@H]2CN1C(=O)N2OS(=O)(=O)O` [Avibactam sodium], the “Growth inhibition, Compound” value was 46%. For `CCn1cc(C(=O)O)c(=O)c2cc(F)c(N3CCNCC3)nc21.CCn1cc(C(=O)O)c(=O)c2cc(F)c(N3CCNCC3)nc21.O.O.O` [Enoxacin Sesquihydrate], the “Growth inhibition, Compound” value was 110%. For `NC1CCN(c2nc3c(cc2F)c(=O)c(C(=O)O)cn3-c2ccc(F)cc2F)C1` (centres unmarked) [Tosufloxacin], the “Growth inhibition, Compound” value was 106%. With `NC[C@H]1O[C@H](O[C@H]2[C@H](O[C@@H]3O[C@H](CO)[C@@H](O)[C@H]3O)[C@@H](O)[C@H](N)C[C@@H]2N)[C@H](N)[C@@H](O)[C@@H]1O.O=S(=O)(O)O` [Ribostamycin sulfate] the “Growth inhibition, Compound” value was 110%. For `Oc1cc(Cl)ccc1Oc1ccc(Cl)cc1Cl` [Triclosan], the “Growth inhibition, Compound” value was 79%. `C=CC1=C(C(=O)O)N2C(=O)[C@@H](NC(=O)/C(=N\O)c3csc(N)n3)[C@H]2SC1` [Cefdinir] was tested, and the “Growth inhibition, Compound” value was 100%. For `N[C@@H]1CN(c2c(F)cc3c(=O)c(C(=O)O)cn([C@@H]4C[C@@H]4F)c3c2Cl)CC12CC2.N[C@@H]1CN(c2c(F)cc3c(=O)c(C(=O)O)cn([C@@H]4C[C@@H]4F)c3c2Cl)CC12CC2.O.O.O` [Sitafloxacin Hydrate], the “Growth inhibition, Compound” value was 101%. For `CN1CCN(c2c(F)cc3c(=O)c(C(=O)O)cn(CCF)c3c2F)CC1` [Fleroxacin], the “Growth inhibition, Compound” value was 109%. With `Cc1cn([C@H]2C[C@H](N=[N+]=[N-])[C@@H](CO)O2)c(=O)[nH]c1=O` [Zidovudine] the “Growth inhibition, Compound” value was 95%. With `[H]/N=C(\N/C(=N/[H])NCCCCCCNC(=N)NC(=N)Nc1ccc(Cl)cc1)Nc1ccc(Cl)cc1` [Chlorhexidine Acetate] the “Growth inhibition, Compound” value was 103%. In the case of `O=C(O)c1cn(-c2ccc(F)cc2)c2cc(N3CCNCC3)c(F)cc2c1=O` [Sarafloxacin], the “Growth inhibition, Compound” value was 109%.
